Source: publication PMC12482042, “Targeting galectin-3 in cancer by novel and unique inhibitors of non-carbohydrate origin” (Molecular Medicine, 2025)
Where two headings read alike, the source gives them in different places.

Assays:
galectin-3 [1] = biological target: T1, galectin-3 (Homo sapiens, UniProt P17931); assay: intrinsic tryptophan fluorescence spectroscopy titration; also competitive ELISA against asialo-fetuin (IC50 […]) and CD; assay type: binding
T1 construct: gene LGALS3; human recombinant galectin-3 expressed in E. coli
T1 sequence (P17931 2-250): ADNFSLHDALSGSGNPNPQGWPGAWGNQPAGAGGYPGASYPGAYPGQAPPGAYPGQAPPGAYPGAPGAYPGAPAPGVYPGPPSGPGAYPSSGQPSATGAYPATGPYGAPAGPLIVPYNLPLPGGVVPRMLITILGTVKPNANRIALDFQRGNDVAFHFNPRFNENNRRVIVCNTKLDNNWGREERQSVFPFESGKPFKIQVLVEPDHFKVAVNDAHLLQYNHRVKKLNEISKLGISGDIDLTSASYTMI

galectin-3 [2] = biological target: T1, galectin-3; assay: as above; assay type: binding; remark: listed apart in the source

Row | SMILES | Kd (galectin-3 [1]) [µM] | Kd (galectin-3 [2]) [µM]
1 | C[C@H]1COc2c(N3CCN(C)CC3)c(F)cc3c(=O)c(C(=O)NNc4ccc(N)cc4)cn1c23 [K2] | 18.1 ± 1.5 | –
2 | C[C@H]1COc2c(N3CCN(C)CC3)c(F)cc3c(=O)c(C(=O)NNc4cccc(N)c4)cn1c23 [L2] | – | 30.2 ± 1.4
